Legend:
Assay type in all cases: cell-based
Staphylococcus aureus = assay: Agar plate disc-diffusion, antibacterial activity (inhibition zone); conditions: nutrient agar, 37° C., 48 h, DMSO zone subtracted
Description: (§1) The agar plate disc-diffusion method was applied. Sterilized filter papers (6 mm in diameter) were wetted with 10 μL of a solution of 4-chloro-N′-(2-(5-(4-chlorophenyl)-1,3,4-oxadiazol-2-ylthio)acetoxy)benzimidamide (3) to be tested, containing 10 mg/mL in DMSO, and the discs were allowed to air dry. The discs were then placed onto the surface of agar plates (nutrient agar for bacteria and Sabouraud's dextrose agar for fungi) seeded with the test organism. Each plate contained 15 mL of the agar medium, previously seeded with 0.2 mL of the broth culture of each organism pregrown for 18 hours. The plates were incubated at 37° C. for 48 h, and 72 h for fungi. The inhibition zones were measured in mm. Discs impregnated with DMSO were used as a control, and its inhibition zone was subtracted from the tested compound actual inhibition zone.
(§2) The results of the antimicrobial testing can be observed in Tables 1 and 2, below, using ciprofloxacin as a reference.

Bacillus Cereus = assay: as above; conditions: nutrient agar, 37° C., 48 h, DMSO zone subtracted
Description: as §1, §2

Pseudomonas aeruginosa = assay: as above; conditions: nutrient agar, 37° C., 48 h, DMSO zone subtracted
Description: as §1, §2

Escherichia coli = assay: as above; conditions: nutrient agar, 37° C., 48 h, DMSO zone subtracted
Description: as §1, §2

Aspergillus flavus = assay: Agar plate disc-diffusion, antifungal activity (inhibition zone); conditions: Sabouraud's dextrose agar, 37° C., 72 h, DMSO zone subtracted
Description: as §1, §2

[1] = test system: Chrysosporium keratinophilum; assay: as above; conditions: Sabouraud's dextrose agar, 37° C., 72 h, DMSO zone subtracted
Description: as §1, §2

[2] = A = concentration of comp. = 10,000 μL
[3] = B = concentration of comp. = 30.000 μL
[4] = C = concentration of comp. = 50,000 μL

N/C(=N\OC(=O)CSc1nnc(-c2ccc(Cl)cc2)o1)c1ccc(Cl)cc1 [Compound 3, 4-chloro-N′-(2-(5-(4-chlorophenyl)-1,3,4-oxadiazol-2-ylthio)acetoxy)benzimidamide]
inhibition zone, Staphylococcus aureus, A (Staphylococcus aureus; [2]): 19 mm | inhibition zone, Staphylococcus aureus, B (Staphylococcus aureus; [3]): 24 mm | inhibition zone, Staphylococcus aureus, C (Staphylococcus aureus; [4]): 37 mm | inhibition zone, Bacillus Cereus, A (Bacillus Cereus; [2]): 20 mm | inhibition zone, Bacillus Cereus, B (Bacillus Cereus; [3]): 26 mm | inhibition zone, Bacillus Cereus, C (Bacillus Cereus; [4]): 39 mm | inhibition zone, Pseudomonas aeruginosa, A (Pseudomonas aeruginosa; [2]): 21 mm | inhibition zone, Pseudomonas aeruginosa, B (Pseudomonas aeruginosa; [3]): 24 mm | inhibition zone, Pseudomonas aeruginosa, C (Pseudomonas aeruginosa; [4]): 36 mm | inhibition zone, Escherichia coli, A (Escherichia coli; [2]): 27 mm | inhibition zone, Escherichia coli, B (Escherichia coli; [3]): 34 mm | inhibition zone, Escherichia coli, C (Escherichia coli; [4]): 41 mm | inhibition zone, Aspergillus flavus, A (Aspergillus flavus; [2]): 24 mm | inhibition zone, Aspergillus flavus, B (Aspergillus flavus; [3]): 26 mm | inhibition zone, Aspergillus flavus, C (Aspergillus flavus; [4]): 35 mm | inhibition zone, Chrysosporium keratinophilum, A [1, 2]: 25 mm | inhibition zone, Chrysosporium keratinophilum, B [1, 3]: 27 mm | inhibition zone, Chrysosporium keratinophilum, C [1, 4]: 40 mm

Reference: patent publication US12012388B1, “4-chloro-n'-(2-(5-(4-chlorophenyl)-1,3,4-oxadiazol-2-ylthio)acetoxy)benzimidamide as an antimicrobial compound” (KING FAISAL UNIVERSITY, priority 2023, dated 2024)
